In patent US9274101B2 (BIOLOG, Inc., priority 2001, dated 2016):

Experiments:
[1] = test system: Undifferentiated HL-60 cells; assay: Energy use by undifferentiated HL-60 cells; format: cell-based, human; conditions: for activity at 30 µM / activity at 100 µM / activity at 330 µM / activity at 1000 µM / activity at 3300 µM / activity at 10000 µM / activity at 15000 µM / activity at 20000 µM: Homo sapiens, HL-60, 24 h, read-out: Energy Use by Undifferentiated HL-60 Cells; for activity at 30 µM: Conc. 0.03 mM; for activity at 100 µM: Conc. 0.10 mM; for activity at 330 µM: Conc. 0.33 mM; for activity at 1000 µM: Conc. 1.00 mM; for activity at 3300 µM: Conc. 3.3 mM; for activity at 10000 µM: Conc. 10 mM; for activity at 15000 µM: Conc. 15 mM; for activity at 20000 µM: Conc. 20 mM
HL-60 cells [2] = assay: Effect of 10 mM citric acid on HL-60 energy utilization; format: cell-based, human; conditions: for Effect of 10 mM Citric Acid on HL-60 Energy Utilization: negative control without energy sources and without citric acid
HL-60 cells [3] = assay: Effect of 1 mM chloramphenicol on HL-60 energy utilization; format: cell-based, human; conditions: for Effect of 1 mM chloramphenicol on HL-60 Energy Utilization: negative control without chloramphenicol
Outline: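 Washed HL-60 cells (5×10^4/well) in DME-R with chloramphenicol (1 mM final) were exposed to test energy sources at 0.033 to 20 mM final for 24 h at 37° C, 5% CO2. MTS/MPMS reagent was then added and read 24 h later at 490 nm (650 nm reference). Cell-free plate OD was subtracted, and values were given as % of the negative control without chloramphenicol.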

ten strains of E. coli = format: cell-based, Escherichia coli; note: key: +: indicates that the organism tested was capable of utilizing the carbon source listed; −: indicates that the organism tested was not capable of utilizing the carbon source listed; indicates weak positive reactions
HL-60 cells [4] = assay: HL-60 responses to selected compounds at a range of concentrations; format: cell-based, human; conditions: for response in words: 0.033 to 20 mM; for activity at 30 µM / activity at 100 µM / activity at 330 µM / activity at 1000 µM / activity at 3300 µM / activity at 10000 µM / activity at 15000 µM / activity at 20000 µM: Homo sapiens, HL-60, read-out: HL-60 Cell Responses to Selected Compounds from PM1 and PM2; for activity at 30 µM: Conc. 0.03 mM; for activity at 100 µM: Conc. 0.10 mM; for activity at 330 µM: Conc. 0.33 mM; for activity at 1000 µM: Conc. 1.00 mM; for activity at 3300 µM: Conc. 3.3 mM; for activity at 10000 µM: Conc. 10 mM; for activity at 15000 µM: Conc. 15 mM; for activity at 20000 µM: Conc. 20 mM
Outline: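 Washed HL-60 cells (5×10^4/well) in DME-R were exposed to test energy sources at final 0.033 to 20 mM for 24 h at 37 °C, then MTS/MPMS was added for a further 24 h. OD490 (ref 650 nm) was corrected with cell-free control plates and normalized to % of no-energy-source control.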

[5] = energy source 0.03 mM with 10 mM citric acid
[6] = energy source 0.10 mM with 10 mM citric acid
[7] = energy source 0.33 mM with 10 mM citric acid
[8] = energy source 1.00 mM with 10 mM citric acid
[9] = energy source 3.3 mM with 10 mM citric acid
[10] = energy source 10 mM with 10 mM citric acid
[11] = energy source 15 mM with 10 mM citric acid
[12] = energy source 20 mM with 10 mM citric acid
[13] = energy source 0.03 mM with 1 mM chloramphenicol
[14] = energy source 0.10 mM with 1 mM chloramphenicol
[15] = energy source 0.33 mM with 1 mM chloramphenicol
[16] = energy source 1.00 mM with 1 mM chloramphenicol
[17] = energy source 3.3 mM with 1 mM chloramphenicol
[18] = energy source 10 mM with 1 mM chloramphenicol
[19] = energy source 15 mM with 1 mM chloramphenicol
[20] = energy source 20 mM with 1 mM chloramphenicol

NC(=O)CC[C@H](N)C(=O)O [L-glutamine]
activity at 30 µM [1]: 167%
activity at 100 µM [1]: 214%
activity at 330 µM [1]: 227%
activity at 1000 µM [1]: 237%
activity at 3300 µM [1]: 249%
activity at 10000 µM [1]: 220%
activity at 15000 µM [1]: 198%
activity at 20000 µM [1]: 172%
energy source use in words ([1]; undifferentiated HL-60 cells): responsive to high concentrations
cell activity in the presence of citric acid, in words (HL-60 cells [2]; 10 mM citric acid): able to restore cell activity to a level equal or greater than the negative control
Effect of 10 mM Citric Acid on HL-60 Energy Utilization (HL-60 cells [2]; [5]): 15.0 % of negative control
Effect of 10 mM Citric Acid on HL-60 Energy Utilization (HL-60 cells [2]; [6]): 57.8 % of negative control
Effect of 10 mM Citric Acid on HL-60 Energy Utilization (HL-60 cells [2]; [7]): 57.1 % of negative control
Effect of 10 mM Citric Acid on HL-60 Energy Utilization (HL-60 cells [2]; [8]): 108.0 % of negative control
Effect of 10 mM Citric Acid on HL-60 Energy Utilization (HL-60 cells [2]; [9]): 135.0 % of negative control
Effect of 10 mM Citric Acid on HL-60 Energy Utilization (HL-60 cells [2]; [10]): 125.3 % of negative control
Effect of 10 mM Citric Acid on HL-60 Energy Utilization (HL-60 cells [2]; [11]): 107.3 % of negative control
Effect of 10 mM Citric Acid on HL-60 Energy Utilization (HL-60 cells [2]; [12]): 86.7 % of negative control
Effect of 1 mM chloramphenicol on HL-60 Energy Utilization (HL-60 cells [3]; [13]): 33.7 % of negative control
Effect of 1 mM chloramphenicol on HL-60 Energy Utilization (HL-60 cells [3]; [14]): 39.8 % of negative control
Effect of 1 mM chloramphenicol on HL-60 Energy Utilization (HL-60 cells [3]; [15]): 60.6 % of negative control
Effect of 1 mM chloramphenicol on HL-60 Energy Utilization (HL-60 cells [3]; [16]): 69.0 % of negative control
Effect of 1 mM chloramphenicol on HL-60 Energy Utilization (HL-60 cells [3]; [17]): 85.0 % of negative control
Effect of 1 mM chloramphenicol on HL-60 Energy Utilization (HL-60 cells [3]; [18]): 90.0 % of negative control
Effect of 1 mM chloramphenicol on HL-60 Energy Utilization (HL-60 cells [3]; [19]): 89.0 % of negative control
Effect of 1 mM chloramphenicol on HL-60 Energy Utilization (HL-60 cells [3]; [20]): 82.1 % of negative control
protective effect of energy source (HL-60 cells [3]; in the presence of 1 mM chloramphenicol): limit the effect to maintenance of the cells at the level seen with no chloramphenicol and no added energy source
carbon source utilization (ten strains of E. coli): + and −
response in words (HL-60 cells [4]): strongly utilized, even at very low concentrations
activity at 30 µM (HL-60 cells [4]): 147%
activity at 100 µM (HL-60 cells [4]): 161%
activity at 330 µM (HL-60 cells [4]): 162%
activity at 1000 µM (HL-60 cells [4]): 168%
activity at 3300 µM (HL-60 cells [4]): 161%
activity at 10000 µM (HL-60 cells [4]): 151%
activity at 15000 µM (HL-60 cells [4]): 127%
activity at 20000 µM (HL-60 cells [4]): 92%

Cc1cn([C@H]2C[C@H](O)[C@@H](CO)O2)c(=O)[nH]c1=O [Thymidine]
activity at 30 µM [1]: 84.1%
activity at 100 µM [1]: 106%
activity at 330 µM [1]: 101%
activity at 1000 µM [1]: 90.9%
activity at 3300 µM [1]: 111%
activity at 10000 µM [1]: 80.3%
activity at 15000 µM [1]: 81.3%
activity at 20000 µM [1]: 52.3%
Effect of 10 mM Citric Acid on HL-60 Energy Utilization (HL-60 cells [2]; [5]): 5.2 % of negative control
Effect of 10 mM Citric Acid on HL-60 Energy Utilization (HL-60 cells [2]; [6]): 18.9 % of negative control
Effect of 10 mM Citric Acid on HL-60 Energy Utilization (HL-60 cells [2]; [7]): 12.4 % of negative control
Effect of 10 mM Citric Acid on HL-60 Energy Utilization (HL-60 cells [2]; [8]): 22.1 % of negative control
Effect of 10 mM Citric Acid on HL-60 Energy Utilization (HL-60 cells [2]; [9]): 27.9 % of negative control
Effect of 10 mM Citric Acid on HL-60 Energy Utilization (HL-60 cells [2]; [10]): 31.0 % of negative control
Effect of 10 mM Citric Acid on HL-60 Energy Utilization (HL-60 cells [2]; [11]): 20.9 % of negative control
Effect of 10 mM Citric Acid on HL-60 Energy Utilization (HL-60 cells [2]; [12]): 64.8 % of negative control
Effect of 1 mM chloramphenicol on HL-60 Energy Utilization (HL-60 cells [3]; [13]): 8.4 % of negative control
Effect of 1 mM chloramphenicol on HL-60 Energy Utilization (HL-60 cells [3]; [14]): 5.8 % of negative control
Effect of 1 mM chloramphenicol on HL-60 Energy Utilization (HL-60 cells [3]; [15]): 6.4 % of negative control
Effect of 1 mM chloramphenicol on HL-60 Energy Utilization (HL-60 cells [3]; [16]): 3.1 % of negative control
Effect of 1 mM chloramphenicol on HL-60 Energy Utilization (HL-60 cells [3]; [17]): 8.8 % of negative control
Effect of 1 mM chloramphenicol on HL-60 Energy Utilization (HL-60 cells [3]; [18]): 5.8 % of negative control
Effect of 1 mM chloramphenicol on HL-60 Energy Utilization (HL-60 cells [3]; [19]): 6.0 % of negative control
Effect of 1 mM chloramphenicol on HL-60 Energy Utilization (HL-60 cells [3]; [20]): 7.3 % of negative control
carbon source utilization (ten strains of E. coli): +
activity at 30 µM (HL-60 cells [4]): 121%
activity at 100 µM (HL-60 cells [4]): 125%
activity at 330 µM (HL-60 cells [4]): 128%
activity at 1000 µM (HL-60 cells [4]): 134%
activity at 3300 µM (HL-60 cells [4]): 129%
activity at 10000 µM (HL-60 cells [4]): 106%
activity at 15000 µM (HL-60 cells [4]): 91.5%
activity at 20000 µM (HL-60 cells [4]): 68.5%

NC(=O)C[C@H](N)C(=O)O [L-asparagine]
activity at 30 µM [1]: 128%
activity at 100 µM [1]: 118%
activity at 330 µM [1]: 118%
activity at 1000 µM [1]: 124%
activity at 3300 µM [1]: 136%
activity at 10000 µM [1]: 141%
activity at 15000 µM [1]: 153%
activity at 20000 µM [1]: 157%
Effect of 10 mM Citric Acid on HL-60 Energy Utilization (HL-60 cells [2]; [5]): 10.1 % of negative control
Effect of 10 mM Citric Acid on HL-60 Energy Utilization (HL-60 cells [2]; [6]): 15.3 % of negative control
Effect of 10 mM Citric Acid on HL-60 Energy Utilization (HL-60 cells [2]; [7]): 13.4 % of negative control
Effect of 10 mM Citric Acid on HL-60 Energy Utilization (HL-60 cells [2]; [8]): 24.6 % of negative control
Effect of 10 mM Citric Acid on HL-60 Energy Utilization (HL-60 cells [2]; [9]): 48.6 % of negative control
Effect of 10 mM Citric Acid on HL-60 Energy Utilization (HL-60 cells [2]; [10]): 100.1 % of negative control
Effect of 10 mM Citric Acid on HL-60 Energy Utilization (HL-60 cells [2]; [11]): 97.7 % of negative control
Effect of 10 mM Citric Acid on HL-60 Energy Utilization (HL-60 cells [2]; [12]): 98.3 % of negative control
Effect of 1 mM chloramphenicol on HL-60 Energy Utilization (HL-60 cells [3]; [13]): 6.3 % of negative control
Effect of 1 mM chloramphenicol on HL-60 Energy Utilization (HL-60 cells [3]; [14]): 17.4 % of negative control
Effect of 1 mM chloramphenicol on HL-60 Energy Utilization (HL-60 cells [3]; [15]): 7.6 % of negative control
Effect of 1 mM chloramphenicol on HL-60 Energy Utilization (HL-60 cells [3]; [16]): 3.1 % of negative control
Effect of 1 mM chloramphenicol on HL-60 Energy Utilization (HL-60 cells [3]; [17]): 12.1 % of negative control
Effect of 1 mM chloramphenicol on HL-60 Energy Utilization (HL-60 cells [3]; [18]): 22.9 % of negative control
Effect of 1 mM chloramphenicol on HL-60 Energy Utilization (HL-60 cells [3]; [19]): 20.9 % of negative control
Effect of 1 mM chloramphenicol on HL-60 Energy Utilization (HL-60 cells [3]; [20]): 30.2 % of negative control
carbon source utilization (ten strains of E. coli): + and −
response in words (HL-60 cells [4]): strongly utilized, even at very low concentrations
activity at 30 µM (HL-60 cells [4]): 134%
activity at 100 µM (HL-60 cells [4]): 149%
activity at 330 µM (HL-60 cells [4]): 138%
activity at 1000 µM (HL-60 cells [4]): 149%
activity at 3300 µM (HL-60 cells [4]): 135%
activity at 10000 µM (HL-60 cells [4]): 137%
activity at 15000 µM (HL-60 cells [4]): 128%
activity at 20000 µM (HL-60 cells [4]): 118%
